In PubChem BioAssay (NCI):
“And” between values parts separate entries of the source, which are not always exact repeats. Identical values can stand only once.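 Growth conditions: 96-well plates. Treatment: test compound, 48 hours, 5 concentrations. Analysis: linear interpolation between bracketing concentrations; unreached endpoints set to highest concentration. GI50: concentration for 50% inhibition of growth. Definition used: TGI = concentration required for complete inhibition of growth.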

How the values were obtained:
Assay in all cases: NCI tumour cell line growth inhibition, 48 h
NCI-H23 lung = tested on: NCI-H23 lung
SNB-19 CNS = tested on: SNB-19 CNS
NCI-H460 lung = tested on: NCI-H460 lung
K-562 leukemia = tested on: K-562 leukemia
U251 CNS = tested on: U251 CNS
HOP-92 NSCLC = tested on: HOP-92 NSCLC
IGROV1 ovarian = tested on: IGROV1 ovarian
RXF 393 renal = tested on: RXF 393 renal
A498 renal = tested on: A498 renal
NCI/ADR-RES ovarian = tested on: NCI/ADR-RES ovarian

Row | SMILES | GI50 (NCI-H23 lung) [µM] | TGI (NCI-H23 lung) | GI50 (SNB-19 CNS) [µM] | TGI (SNB-19 CNS) | GI50 (NCI-H460 lung) [µM] | TGI (NCI-H460 lung) | GI50 (K-562 leukemia) | TGI (K-562 leukemia) | GI50 (U251 CNS) [µM] | TGI (U251 CNS) | GI50 (HOP-92 NSCLC) [µM] | TGI (HOP-92 NSCLC) | GI50 (IGROV1 ovarian) [µM] | TGI (IGROV1 ovarian) | GI50 (RXF 393 renal) [µM] | TGI (RXF 393 renal) | GI50 (A498 renal) [µM] | TGI (A498 renal) | GI50 (NCI/ADR-RES ovarian) [µM] | TGI (NCI/ADR-RES ovarian) [µM]
1 | CCCCCCCCCCCCNC(=O)[C@H]1CSC(c2cc3ccccc3s2)N1 (stereo not given in full) | 1.92 | 7.19 µM | 5.47 | 11.2 µM | 1.02 | 2.5 µM | 0.717 µM | 1.62 µM | 2.61 | 7.19 µM | 5.41 | 10.5 µM | 0.923 | 2.51 µM | 0.942 | 2.21 µM | 10.2 | 26.3 µM | 1.66 | 6.83
2 | Cc1ccc2c(c1)C(C)Cc1c(ncnc1-n1cnc3cc(C)ccc31)N2C (stereo not given) | 0.0567 | 21.5 µM | 0.0522 | 21.9 µM | 0.034 | 4.39 µM | 0.034 µM | 16.5 µM | 0.0362 | 12.1 µM | 0.301 | 5.21 µM | 0.0633 | 15.7 µM | 0.0289 | 8.74 µM | 0.0297 | 2 µM | 0.0374 | 54.3
3 | NC(=O)C1c2ccccc2C=Cc2ccccc21 | > 100 | > 100 µM | > 100 | > 100 µM | > 100 | > 100 µM | > 100 µM | > 100 µM | > 100 | > 100 µM | 51.6 | > 100 µM | > 100 | > 100 µM | > 100 | > 100 µM | > 100 | > 100 µM | > 100 | > 100
4 | COc1ccc(CCN2CCCN3C2=Nc2ccccc2S3(=O)=O)cc1 | 0.474 | > 100 µM | 0.882 | > 100 µM | 0.429 | 44.1 µM | 0.196 µM | > 100 µM | 0.388 | > 100 µM | 0.348 | 13.4 µM | 1.51 | > 100 µM | 0.622 | > 100 µM | 0.195 | 3.2 µM | 0.3 | 6.8
5 | CN[C@@H](C)C(=O)N[C@H]1CN(C(=O)CC(C)C)CC[C@H]2CC[C@@H](C(=O)NC(c3ccccc3)c3ccccc3)N2C1=O | 27.6 | > 100 µM | > 100 | > 100 µM | > 100 | > 100 µM | 97.9 µM | > 100 µM | > 100 | > 100 µM | – | > 45.4 µM | > 100 | > 100 µM | 7.38 | > 100 µM | > 42.7 | > 100 µM | > 100 | > 100
6 | O=c1[nH]cc(/C=N\Nc2ccccc2)c(=O)[nH]1 | – | > 100 µM | – | > 100 µM | – | > 100 µM | – | > 100 µM | – | > 100 µM | – | > 100 µM | – | > 100 µM | – | > 100 µM | – | > 100 µM | – | > 100
7 | CCN(CC)CC.CCOc1ccc(NC(=O)N=C=[N-])cc1.[CH-]1CCCCC1.[CH-]1CCCCC1.[CH-]1CCCCC1.[Cl-].[Sn+4] | 0.0312 | 0.0882 µM | 0.0586 | 0.122 µM | 0.0279 | 0.575 µM | 0.0171 µM | 0.463 µM | 0.0261 | 0.0718 µM | 0.0264 | 0.111 µM | 0.0342 | 0.115 µM | 0.0146 | 0.0336 µM | 0.0423 | 0.0959 µM | 0.0221 | 0.0559
8 | CNC(=O)c1c(NC(=O)c2ccc(C(F)(F)F)cc2)sc2c1CCC(=O)C2 | 0.418 | 5.9 µM | 0.735 | > 65.9 µM | 0.89 | 4.19 µM | 0.193 µM | – | 0.314 | 2.06 µM | 0.256 | 2.15 µM | 0.471 | 4.89 µM | 0.41 | 2.15 µM | 2.33 | 7.07 µM | 0.662 | 3.74
9 | N=C(N)/N=C(\N)c1c(-c2cc(O)ccc2O)nc2sccn12 | 19.5 | 34.1 µM | > 100 | > 100 µM | > 100 | > 100 µM | 33 µM | > 100 µM | 46.1 | > 100 µM | 18.3 | 55.3 µM | 22.5 | 44.1 µM | 20.6 | 41.6 µM | > 100 | > 100 µM | 82.3 | > 100
10 | C#CCSc1n[nH]c(-c2ccco2)n1 | – | > 100 µM | – | > 100 µM | – | > 100 µM | – | > 100 µM | – | > 100 µM | – | > 100 µM | – | > 100 µM | – | > 100 µM | – | > 100 µM | – | > 100
11 | CCCOc1ccc(-c2nc(-c3ccc(N=Cc4ccc(N(CCOS(C)(=O)=O)CCOS(C)(=O)=O)cc4C)cc3)cs2)cc1 | – | 30.8 µM | – | > 94.5 µM | – | 24 µM | – | > 100 µM | – | 52.4 µM | – | 52.7 µM | – | > 67.1 µM | – | 28.9 µM | – | 24.2 µM | – | > 84.6
12 | O=C(N/N=C/c1ccccc1O)C(O)(c1ccccc1)c1ccccc1 | > 100 | > 100 µM | > 100 | > 100 µM | 3.54 | > 100 µM | 6.73 µM | > 100 µM | 4.77 | > 100 µM | > 100 | > 100 µM | 3.83 | > 100 µM | > 100 | > 100 µM | > 100 | > 100 µM | 7.65 | > 100
13 | C[C@H](N)C(=O)N[C@@H]1[C@H]2C(=C(O)C[C@@H](O)[C@@H]2O)C(=O)O[C@]1(C)C(Cl)Cl | 0.226 | 1.04 µM and 1.1 µM | 0.242 | 6.02 µM and 1.72 µM | 0.146 | 1.4 µM and 1.2 µM | 0.229 µM and 0.233 µM | 9.75 µM and 2.84 µM | 0.171 | 3.08 µM and 2.29 µM | 0.223 | 1.19 µM and 0.736 µM | 0.441 | 7.79 µM and 2.43 µM | – | 0.828 µM and 1.08 µM | – | 2.27 µM and 1.56 µM | – | 29.1
